# Assay results published in paper PMC11714206, “Massively Parallel Screening of Toll/Interleukin‐1 Receptor (TIR)‐Derived Peptides Reveals Multiple Toll‐Like Receptors (TLRs)‐Targeting Immunomodulatory Peptides” (Advanced Science, 2024).
# Molecular target: T1, MyD88^TIR (Homo sapiens, UniProt Q99836)
# T1 construct: MyD88 (residues 148–296); 6xHis; made in house; host or cells: E. coli BL21 (DE3)
# Test: T‐Surf phage library (P8 and P3) selection against MyD88^TIR, four rounds, NGS read counts
# Assay type: binding
# Details: for P3_MyD88 Rank (after) / P3_MyD88 Rank (before): P3 library; for P8_MyD88 Rank (after) / P8_MyD88 Rank (before): P8 library; for Population: 4th round of selection against MyD88 TIR, share of NGS reads
# Outline: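 Read counts come from NGS of phage pools enriched over four selection rounds on the plate‐coated TIR domain (5 µg mL^−1). Each round: 1 h phage binding at room temperature after 0.2% BSA blocking, Tween washes, acid elution, amplification in E. coli TG1 with M13KO7 helper.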
# [1] = P3_MyD88: rank by count after grouping
# [2] = P3_MyD88: rank by count before grouping
# [3] = 4R selection against MyD88, rank after grouping
# [4] = 4R selection against MyD88, rank before grouping
# [5] = selection against MyD88, rank by count after grouping
# [6] = selection against MyD88, rank by count before grouping
# [7] = P8_MyD88: rank by count after grouping
# [8] = P8_MyD88: rank by count before grouping
# [9] = P3_MyD88 pool: P3 T-Surf phage library
# [10] = P8_MyD88: rank by NGS read count after grouping
# [11] = P8_MyD88: rank by NGS read count before grouping
# [12] = P8_MyD88 pool: P8 T-Surf phage library
# [13] = selection against MyD88 TIR, rank by count after grouping
# [14] = selection against MyD88 TIR, rank by count before grouping
# [15] = selection against MyD88, rank after grouping
# [16] = selection against MyD88, rank before grouping
# T1 sequence (Q99836 148-296): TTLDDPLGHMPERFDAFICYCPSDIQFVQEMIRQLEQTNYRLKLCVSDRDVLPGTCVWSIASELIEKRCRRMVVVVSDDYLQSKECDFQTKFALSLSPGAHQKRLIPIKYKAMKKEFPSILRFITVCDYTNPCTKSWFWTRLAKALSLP
sequence,measurement,setting,value
YTALTNRGFHTFLDND,Rank (after),[1],479
same,Rank (before),[2],1631
EWIREQLRPALKERMT,P3_MyD88 Rank (after),[3],619
same,P3_MyD88 Rank (before),[4],2151
WALDELLQILHVSEMF,P8_MyD88 Rank (after),[5],747
same,P8_MyD88 Rank (before),[6],1418
SSGRECLWRLLELRKK,Rank (after),[1],415
same,Rank (before),[2],3270
WDFASNMEQLLDRLYY,Rank (after),[7],406
same,Rank (before),[8],1626
SSFREGRWRLLELSKK,Population,[9],0.0032%
SSSREGLWRLLELSKK,Population,[9],0.0032%
AVEKETDKIQTPPKNA,Rank (after),[1],173
same,Rank (before),[2],1939
LEANDSLFWDRLLYSLHVTE,Rank (after),[7],179
same,Rank (before),[8],214
DWVWDYLLQILHARELF,Rank (after),[10],995
same,Rank (before),[11],2450
PQDRERFFERLFSLF,Rank (after),[10],998
same,Rank (before),[11],3490
LGYHWIDWEYFVGSED,Population,[12],0.00655%
SSFREGLWRLLKLSKK,Population,[9],0.00349%
CALCELLQILHARGLF,P8_MyD88 Rank (after),[5],725
same,P8_MyD88 Rank (before),[6],1345
AVDKKTDKIQTPRKNA,Rank (after),[1],468
same,Rank (before),[2],1938
LGYHRIDWEYCVGIED,Rank (after),[10],1020
same,Rank (before),[11],3318
NELVHEISKKMKIFATI,Rank (after),[1],398
same,Rank (before),[2],3443
YTALTNSGVHTFLDND,P3_MyD88 Rank (after),[13],206
same,P3_MyD88 Rank (before),[14],1688
LKVESWRQALKERLP,Population,[9],0.00378%
SSFRDDLWRLLELSKK,P3_MyD88 Rank (after),[3],582
same,P3_MyD88 Rank (before),[4],3135
LVAHEISKMLKIFETI,P3_MyD88 Rank (after),[5],681
same,P3_MyD88 Rank (before),[6],2284
FAANPLSFHVRVKLGG,P8_MyD88 Rank (after),[15],501
same,P8_MyD88 Rank (before),[16],1303
PQDLAWLYERPLSLIL,Rank (after),[10],1015
same,Rank (before),[11],3424
YQLVFVHFWMFDGRTA,P8_MyD88 Rank (after),[15],518
same,P8_MyD88 Rank (before),[16],2106
LGYHWIDWEDFVGIEN,Rank (after),[10],919
same,Rank (before),[11],3280
FDASTWWLRELLQIA,Rank (after),[7],413
same,Rank (before),[8],814
YAFTGHPPRYLVQRGV,Rank (after),[1],433
same,Rank (before),[2],1536
DPQVLEWFYELLVSLL,P8_MyD88 Rank (after),[5],684
same,P8_MyD88 Rank (before),[6],2656
AVGKETNKIQTPLKNA,Rank (after),[1],177
same,Rank (before),[2],1886
DHHMDLPRDTAIKPEILG,P3_MyD88 Rank (after),[3],661
same,P3_MyD88 Rank (before),[4],2060
DPQGVDLFYERQVSLL,P8_MyD88 Rank (after),[15],567
same,P8_MyD88 Rank (before),[16],2675
SSAWALNELVQIMKAW,Rank (after),[7],399
same,Rank (before),[8],1289
YLLLSVFQTICALRTE,Rank (after),[10],963
same,Rank (before),[11],1999
YPQDLQWLYERLGSLI,Rank (after),[10],892
same,Rank (before),[11],2104
YAFTGHLHSYLVQRSV,Rank (after),[1],125
same,Rank (before),[2],1530
DPQDPDWCYERLVSLI,P8_MyD88 Rank (after),[15],522
same,P8_MyD88 Rank (before),[16],2962
LKWGEPYFCSKLRYAM,Rank (after),[1],476
same,Rank (before),[2],2449
LKVERWRQSLEKAGKL,P3_MyD88 Rank (after),[13],217
same,P3_MyD88 Rank (before),[14],2522
ERLFIETQNVNKDLIG,P3_MyD88 Rank (after),[13],264
same,P3_MyD88 Rank (before),[14],2209
RTLFENLWESVYNISQ,P3_MyD88 Rank (after),[5],690
same,P3_MyD88 Rank (before),[6],2633
EWNRKQKRPDQKERLQ,P3_MyD88 Rank (after),[3],608
same,P3_MyD88 Rank (before),[4],2185
YLKWGYPWFWDRLRFA,P8_MyD88 Rank (after),[15],571
same,P8_MyD88 Rank (before),[16],2084
WALDELLQLQHARELF,P8_MyD88 Rank (after),[15],561
same,P8_MyD88 Rank (before),[16],1431
ELDFSHFWLFDAGGEA,Population,[12],0.0154%
PSEVRKQTGSLAKALRRNCC,P3_MyD88 Rank (after),[13],254
same,P3_MyD88 Rank (before),[14],1130
SCFCEELCCVLELSKK,P3_MyD88 Rank (after),[3],656
same,P3_MyD88 Rank (before),[4],2938
LEYRWIDWEYFVGLED,Rank (after),[10],886
same,Rank (before),[11],3357
WALDELLQILHAREL,P8_MyD88 Rank (after),[15],577
same,P8_MyD88 Rank (before),[16],1451
STAMTNRGFHTFRDND,P3_MyD88 Rank (after),[5],688
same,P3_MyD88 Rank (before),[6],1427
ASSPWALYELVEILTA,P8_MyD88 Rank (after),[5],683
same,P8_MyD88 Rank (before),[6],2333
YKLALHFRVWRVGVSI,Rank (after),[10],883
same,Rank (before),[11],2135
YITWFEDFQQILLFWI,Rank (after),[10],924
same,Rank (before),[11],2117
DYASSWWALDELLRILY,P8_MyD88 Rank (after),[3],650
same,P8_MyD88 Rank (before),[4],2504
DPQDQDRFYERLVSLF,P8_MyD88 Rank (after),[3],591
same,P8_MyD88 Rank (before),[4],2968
SWGQSFLKSPLGWLFA,P3_MyD88 Rank (after),[13],272
same,P3_MyD88 Rank (before),[14],2936
YASYDDNYYYWVTHVLLRRL,Rank (after),[10],969
same,Rank (before),[11],1775
LGYHWIDWAYSVGIED,P8_MyD88 Rank (after),[5],750
same,P8_MyD88 Rank (before),[6],3251
SIATLLYDQLSWLDIH,P8_MyD88 Rank (after),[13],201
same,P8_MyD88 Rank (before),[14],293
YASSSWALNELPRILY,Rank (after),[7],389
same,Rank (before),[8],1902
SELRVVDDGSVSPLK,P3_MyD88 Rank (after),[13],210
same,P3_MyD88 Rank (before),[14],3038
YALTGHKHRYMVQRGV,P3_MyD88 Rank (after),[13],193
same,P3_MyD88 Rank (before),[14],1554
DPHDLEWVYERLVSLF,Rank (after),[10],913
same,Rank (before),[11],2603
SSFRGGLWRLLELSKK,Population,[9],0.00349%
YTALTIAAFIPFVIM,P3_MyD88 Rank (after),[15],574
same,P3_MyD88 Rank (before),[16],1647
SSFREGLWRLLELGKK,Population,[9],0.00437%
YAASPWWFDELVKILE,Rank (after),[10],906
same,Rank (before),[11],1733
GLSWVRMNGGWACMM,Rank (after),[10],922
same,Rank (before),[11],2287
DSLFWDRLLPNLEGPAG,P8_MyD88 Rank (after),[3],645
same,P8_MyD88 Rank (before),[4],3104
SSFREGQWCLMELCKK,P3_MyD88 Rank (after),[13],280
same,P3_MyD88 Rank (before),[14],3218
YASSSWALDELLQILW,P8_MyD88 Rank (after),[5],720
same,P8_MyD88 Rank (before),[6],1891
DPQDLAWFSERLVSQF,P8_MyD88 Rank (after),[15],551
same,P8_MyD88 Rank (before),[16],2728
HSEWACHELYFSHFWP,P3_MyD88 Rank (after),[15],551
same,P3_MyD88 Rank (before),[16],2827
PVAHDLSKKMKIFATI,Rank (after),[1],474
same,Rank (before),[2],2698
AWTDDPVGQLFFWESL,Rank (after),[7],168
same,Rank (before),[8],189
same,Population,[12],0.00655%
GSFRESLWRLLELSKK,Rank (after),[1],465
same,Rank (before),[2],1859
YYLDPSHLRKQRGEVD,Rank (after),[1],418
same,Rank (before),[2],1439
LGYHWIDWEYFVALK,P8_MyD88 Rank (after),[13],235
same,P8_MyD88 Rank (before),[14],599
SWAVDELLQILHARELF,P8_MyD88 Rank (after),[3],625
same,P8_MyD88 Rank (before),[4],3756
DPQVLDWYYERLVRLF,P8_MyD88 Rank (after),[3],626
same,P8_MyD88 Rank (before),[4],2646
